According to article PMC12582325 (Proceedings of the National Academy of Sciences of the …, 2025):
Where “and” joins values, the source holds several entries; their conditions need not be identical. Equal entries are not always repeated. Entries after “also recorded” stand apart in the source; their conditions may differ. Where two headings read alike, the source gives them in different places. Where a SMILES comes first, the peptide text is derived from it.

Tests used:
Hj Ste2 GPCR (Hj.Hpr2) = assay type: cell-based, Hypocrea jecorina
Fg.Ste2 [1] = assay type: cell-based, Fusarium graminearum; details: for Diploid frequency (%): 20 h coculture; for diploid frequency (%) / average (diploid colonies): GPCR strain GEN37 HIS; for average (diploid colonies): dilution 500, mean of Rep1-3
[2] = system: empty (strain lacking a GPCR); assay type: cell-based, Saccharomyces cerevisiae; details: Fig. 1D mating matrix; pheromone secreted by MATa strain, MATα strain lacking a GPCR (empty); deep well plate, 20 h coculture
Bc.Ste2 [3] = assay type: cell-based, Botrytis cinerea
[4] = system: no_GPCR (negative control lacking a GPCR); assay type: cell-based, Saccharomyces cerevisiae; details: for barcode qPCR of diploids, no_GPCR x pheromone strain: consortium, individual replicates (n=3), listed as Fo.Pheromone
[5] = system: F. oxysporum infection of tomato plants; test: Tomato plant mortality assay; assay type: in vivo, Fusarium oxysporum / Solanum lycopersicum; details: groups of 10 plants; 3.2 × 10^6 microconidia/mL supplemented with pheromone once at inoculation; 50 d; Kaplan-Meier, log-rank
Procedure: Tomato plant infection assays were performed as described ([61]) with F. oxysporum microconidia and treatment inoculation as described above. Plants were transferred to a growth and plant survival was recorded daily for 50 d. Plant death was diagnosed as a complete collapse of the stem, without any green parts left. The Kaplan–Meier test was used to assess statistical significance of differences in survival among groups using the log-rank test in GraphPad Prism. The infection experiment was conducted two times with 10 plants per condition.

Fg.Ste2 [6] = details: for barcode qPCR of diploids, Fg.Ste2 x pheromone strain: consortium, individual replicates (n=3), listed as Fo.Pheromone
Bb.Ste2 = assay type: cell-based, Beauveria bassiana
[7] = system: F. oxysporum microconidia; test: Germination of F. oxysporum microconidia; assay type: cell-based, Fusarium oxysporum f. sp. lycopersici 4287; design: Germination of F. oxysporum microconidia (data of Sup.Fig.10): unit not given here; details: for Germination of F. oxysporum microconidia (data of Sup.Fig.10): 400 μM pheromone, 13 h, at least 300 spores counted
Procedure: For F. oxysporum microconidia production, the strain was grown for 3 to 4 d in liquid potato dextrose broth (PDB) at 28 °C and 170 rpm. Germination media ([10]) was used for assessing the spore germination. RE was prepared by removing 2-wk-old tomato plants from vermiculite and washing the roots to remove any adhering substrates ([11]).
Supplementary Figure 10. Germination of F. oxysporum microconidia after 13 h of incubation in Germination Media at a cell density of […] microconidia/mL. The assay was performed with 400 μM of pheromone. All points represent the average of three biological replicates in which at least 300 spores were counted. Statistical significance was determined through one-way analysis of variance (ANOVA) with Dunnett’s multiple comparisons (✱p ≤ 0.05).

B. bassiana = assay type: cell-based, Beauveria bassiana
Nc Ste2 GPCR = assay type: cell-based, Neurospora crassa
[8] = system: F. oxysporum in tomato roots; test: Quantification of fungal DNA in tomato roots (qPCR); details: 3 d after inoculation, washed roots; compared to the untreated infected roots; three biological replicates
Fg.Ste2 [9] = assay type: cell-based, Fusarium graminearum; details: YPL1 library cocultured with Fg.Ste2 strain GEN87, 20 h, 2 d diploid enrichment, NextSeq 500
Bc.Ste2 [10] = assay type: cell-based, Botrytis cinerea; remark: listed apart in the source
Fo.Ste2 [11] = assay type: cell-based, Fusarium oxysporum
[12] = system: F. oxysporum on tomato roots; test: Tomato root inoculation and fluorescence microscopy of infected roots; assay type: in vivo, Fusarium oxysporum / Solanum lycopersicum; details: exogenous addition of pheromone to microconidia; 3 d after inoculation; fluorescence microscopy
Fo.Ste2 [13] = assay type: cell-based, Fusarium oxysporum; remark: listed apart in the source

C[C@@H](O)[C@H](NC(=O)[C@H](CS)NC(=O)[C@@H](N)Cc1c[nH]c2ccccc12)C(=O)N[C@@H](Cc1c[nH]c2ccccc12)C(=O)N[C@@H](CCCNC(=N)N)C(=O)NCC(=O)N[C@@H](CCC(N)=O)C(=O)N1CCC[C@H]1C(=O)N[C@@H](CS)C(=O)N[C@@H](Cc1c[nH]c2ccccc12)C(=O)O [Fo] (H-WCTWRGQPCW-OH; N-terminus assumed)
Diploid frequency (%) (Hj Ste2 GPCR (Hj.Hpr2)): 0.0% | Diploid frequency (%) (Fg.Ste2 [1]; Fig. 1D mating matrix, pheromone secreted by MATa strain, GPCR in MATα strain, deep well plate, three technical plating replicates): 0.5% | Diploid frequency (%) (Fg.Ste2 [1]; Fig. 1F validation in culture tubes, secreted pheromone, three biological and three technical replicates): 8.8% | diploid frequency (%) (Fg.Ste2 [1]; co-culture replicate 1): 1.34% | average (diploid colonies) (Fg.Ste2 [1]; co-culture replicate 1): 5.67 | diploid frequency (%) (Fg.Ste2 [1]; co-culture replicate 2): 1.11% | average (diploid colonies) (Fg.Ste2 [1]; co-culture replicate 2): 4.67 | diploid frequency (%) (Fg.Ste2 [1]; co-culture replicate 3): 0.95% | average (diploid colonies) (Fg.Ste2 [1]; co-culture replicate 3): 4 | Diploid frequency (%) [2]: 0.1% | Fold change yEGFP (Bc.Ste2 [3]): 1 | Hillslope (Bc.Ste2 [3]): 0.5934 | logEC50 (Bc.Ste2 [3]): -8.991 | Sup.Fig.3A Bc.Ste2 biosensor response, group mean (Bc.Ste2 [3]; 10 μM): 1.713 | barcode qPCR of diploids, no_GPCR x pheromone strain ([4]; SC-AS/Urea): 0 and 0.004 and 0.005 | barcode qPCR of diploids, no_GPCR x pheromone strain ([4]; SC): 0 (2×) and 0.007 | diploid barcode qPCR signal relative to control (2^-dCt) ([4]; section A4, GPCR strain not given, mean of Bio1-3): 0.036 | diploid barcode qPCR signal relative to control (2^-dCt) ([4]; section A4, column EMPTY, replicate Bio1): 0.014 | diploid barcode qPCR signal relative to control (2^-dCt) ([4]; section A4, column EMPTY, replicate Bio2): 0.039 | diploid barcode qPCR signal relative to control (2^-dCt) ([4]; section A4, column EMPTY, replicate Bio3): 0.054 | diploid barcode qPCR signal relative to control (2^-dCt) ([4]; section Cm, GPCR strain not given, mean of Bio1-3): 0.002 | diploid barcode qPCR signal relative to control (2^-dCt) ([4]; section Cm, column EMPTY, replicate Bio1): 0.005 | diploid barcode qPCR signal relative to control (2^-dCt) ([4]; section Cm, column EMPTY, replicate Bio2): 0 | diploid barcode qPCR signal relative to control (2^-dCt) ([4]; section Cm, column EMPTY, replicate Bio3): 0 | diploid barcode qPCR signal relative to control (2^-dCt) ([4]; section SC, GPCR strain not given, mean of Bio1-3): 0.0024 | diploid barcode qPCR signal relative to control (2^-dCt) ([4]; section SC, column EMPTY, replicate Bio1): 0 | diploid barcode qPCR signal relative to control (2^-dCt) ([4]; section SC, column EMPTY, replicate Bio2): 0 | diploid barcode qPCR signal relative to control (2^-dCt) ([4]; section SC, column EMPTY, replicate Bio3): 0.007 | diploid barcode qPCR signal relative to control (2^-dCt) ([4]; section Scramble, GPCR strain not given, mean of Bio1-3): 0.0071 | diploid barcode qPCR signal relative to control (2^-dCt) ([4]; section Scramble, column EMPTY, replicate Bio1): 0 | diploid barcode qPCR signal relative to control (2^-dCt) ([4]; section Scramble, column EMPTY, replicate Bio2): 0.015 | diploid barcode qPCR signal relative to control (2^-dCt) ([4]; section Scramble, column EMPTY, replicate Bio3): 0.006 | Tomato plant survival [5]: no significant difference in plant survival | barcode qPCR of diploids, Fg.Ste2 x pheromone strain (Fg.Ste2 [6]; SC-AS/Urea): 0.002 and 0.005 and 0.018 | barcode qPCR of diploids, Fg.Ste2 x pheromone strain (Fg.Ste2 [6]; SC): 0.005 (2×) and 0.013 | diploid barcode qPCR signal relative to control (2^-dCt) (Fg.Ste2 [6]; section A4, (GPCR strain) Fg, mean of Bio1-3): 0.118 | diploid barcode qPCR signal relative to control (2^-dCt) (Fg.Ste2 [6]; section A4, column Fg, replicate Bio1): 0.012 | diploid barcode qPCR signal relative to control (2^-dCt) (Fg.Ste2 [6]; section A4, column Fg, replicate Bio2): 0.1 | diploid barcode qPCR signal relative to control (2^-dCt) (Fg.Ste2 [6]; section A4, column Fg, replicate Bio3): 0.242 | diploid barcode qPCR signal relative to control (2^-dCt) (Fg.Ste2 [6]; section Cm, (GPCR strain) Fg, mean of Bio1-3): 0.038 | diploid barcode qPCR signal relative to control (2^-dCt) (Fg.Ste2 [6]; section Cm, column Fg, replicate Bio1): 0.014 | diploid barcode qPCR signal relative to control (2^-dCt) (Fg.Ste2 [6]; section Cm, column Fg, replicate Bio2): 0.066 | diploid barcode qPCR signal relative to control (2^-dCt) (Fg.Ste2 [6]; section Cm, column Fg, replicate Bio3): 0.033 | diploid barcode qPCR signal relative to control (2^-dCt) (Fg.Ste2 [6]; section SC, (GPCR strain) Fg, mean of Bio1-3): 0.0075 | diploid barcode qPCR signal relative to control (2^-dCt) (Fg.Ste2 [6]; section SC, column Fg, replicate Bio1): 0.005 | diploid barcode qPCR signal relative to control (2^-dCt) (Fg.Ste2 [6]; section SC, column Fg, replicate Bio2): 0.005 | diploid barcode qPCR signal relative to control (2^-dCt) (Fg.Ste2 [6]; section SC, column Fg, replicate Bio3): 0.013 | diploid barcode qPCR signal relative to control (2^-dCt) (Fg.Ste2 [6]; section Scramble, (GPCR strain) Fg, mean of Bio1-3): 0.0276 | diploid barcode qPCR signal relative to control (2^-dCt) (Fg.Ste2 [6]; section Scramble, column Fg, replicate Bio1): 0.025 | diploid barcode qPCR signal relative to control (2^-dCt) (Fg.Ste2 [6]; section Scramble, column Fg, replicate Bio2): 0.022 | diploid barcode qPCR signal relative to control (2^-dCt) (Fg.Ste2 [6]; section Scramble, column Fg, replicate Bio3): 0.036 | Activation of Bb.Ste2 biosensor, in words (Bb.Ste2): higher EC50 values | EC50 fold higher than that of the Bb pheromone (Bb.Ste2): 3,910 fold | Fold change yEGFP (Bb.Ste2): 178 | Hillslope (Bb.Ste2): 1.951 | half-maximal effective concentration (EC50) (Bb.Ste2): 958 nM | logEC50 (Bb.Ste2): -6.019 | Germination of F. oxysporum microconidia (data of Sup.Fig.10) ([7]; biological replicate 1 (first line)): 23,4 | Germination of F. oxysporum microconidia (data of Sup.Fig.10) ([7]; biological replicate 2 (second line)): 23,3 | Germination of F. oxysporum microconidia (data of Sup.Fig.10) ([7]; biological replicate 3 (third line)): 13,3 | Mean Diff, Solvent vs. peptide ([7]; Sup.Fig.10, Dunnett's multiple comparisons test, n = 3): 23,77 | Mean 2 (peptide), germination ([7]; Sup.Fig.10, Solvent control mean 43,77, mean of n = 3): 20,00 | Effect on F. oxysporum microconidia germination, in words ([7]; exogenous addition of 400 μM peptide, 13 h in Germination Media, 3.2 x 106 microconidia/mL): significant reduction | Chemotropism of spores, group mean (B. bassiana): 11.13 | chem. Index (B. bassiana): 14.29 and 11.03 and 8.06 | Chemotropic response in Bb germ tubes (B. bassiana; 20 hours): significant chemotropic response | Diploid frequency (%) (Nc Ste2 GPCR): 0.0% | Fungal biomass in inoculated tomato roots (qPCR of Fol4287 actin gene, 2^−ΔΔCt, normalized to tomato gapdh) [8]: significant reduction in fungal biomass | Enrichment after mating, reads per million minus library before coculture (Fg.Ste2 [9]): > 340,000 RPM | Effect on activation of Bc.Ste2 by Bc pheromone, in words (Bc.Ste2 [10]; 0.0005 μM Bc pheromone in combination with 10 μM peptide, four biological replicates, Fig. 2G): do not differ significantly from Bc alone; also recorded: no such effect | Bc.Ste2 + pheromones, biosensor response, group mean (Bc.Ste2 [10]; Bc + the named peptide, Bc alone mean 134.8, mean of n = 4): 104.9 | Fold change yEGFP (Fo.Ste2 [11]): 236 | Hillslope (Fo.Ste2 [11]): 2.574 | logEC50 (Fo.Ste2 [11]): -7.534 | Sup.Fig.3B Fo.Ste2 biosensor response, group mean (Fo.Ste2 [11]; 0.5 μM): 1195000 | Adhesion of F. oxysporum germ tubes among themselves or to tomato roots [12]: increased adhesion | Sup.Fig.7A - Fo, group mean (Fo.Ste2 [13]): 0.3879 and 0.4515 | average (diploid colonies) (Fo.Ste2 [13]): 68 and 129.67 and 80.33 | diploid frequency (%) (Fo.Ste2 [13]): 19.26% and 31.27% and 21.99% | diploid frequency (%), Plates, Fo (Fo.Ste2 [13]): 1.52% and 3.25% and 5.49% | diploid frequency (%), Plates, Fo (Fo.Ste2 [13]; pH=6): 1.9% and 1.65% and 1.4% | diploid frequency (%), Plates, Fo (Fo.Ste2 [13]; pH=7): 1.27% and 1.02% and 0.39% | Sup.Fig.7A - Fo, group mean (Fo.Ste2 [13]; ph=6): 0.422 | Sup.Fig.7A - Fo, group mean (Fo.Ste2 [13]; ph=7): 0.4837
